Data from patent US12077503B2, “Substituted cyclic amides and their use as herbicides” (FMC CORPORATION, priority 2015, dated 2024).

Experiments:
Type in all cases: in vivo
[1] = test system: ryegrass, Italian (Italian ryegrass, Lolium multiflorum); assay: Test A postemergence
In short: (§1)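 Visual injury scores from 0, no effect, to 100, complete control, were assigned versus untreated controls roughly 10 d after treatment in the greenhouse. Test chemicals, formulated with surfactant in a non-phytotoxic solvent, were applied to planted seeds as a preemergence soil spray or postemergence to one- to two-leaf plants 2 to 10 cm tall, in loam–sand soil.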

corn (Zea mays) = assay: Test A postemergence
In short: as §1

[2] = test system: blackgrass (Alopecurus myosuroides); assay: Test A postemergence; conditions: for Blackgrass plant response rating: 125 g ai/ha, postemergence, visual injury rating on 0 to 100 scale (0 no effect, 100 complete control), approx. 10 d; for Plant response rating, Blackgrass: Postemergence, 500 g ai/ha, 0 to 100 scale where 0 is no effect and 100 is complete control
In short: as §1

[3] = test system: ragweed (common ragweed, Ambrosia elatior); assay: Test A postemergence
In short: as §1

[4] = test system: pigweed (Amaranthus retroflexus); assay: Test A postemergence
In short: as §1

[5] = test system: wheat (Triticum aestivum); assay: Test A postemergence
In short: as §1

Kochia (Kochia scoparia) [6] = assay: Test A postemergence
In short: as §1

[7] = test system: Galium (catchweed bedstraw, Galium aparine); assay: Test A postemergence
In short: as §1

[8] = test system: giant foxtail (Setaria faberii); assay: Test A postemergence
In short: as §1

[9] = test system: barnyardgrass (Echinochloa crus-galli); assay: Test A postemergence; conditions: for Barnyardgrass plant response rating: 125 g ai/ha, postemergence, visual injury rating on 0 to 100 scale (0 no effect, 100 complete control), approx. 10 d; for Plant response rating, Barnyardgrass: Postemergence, 500 g ai/ha, 0 to 100 scale where 0 is no effect and 100 is complete control
In short: as §1

[10] = test system: ryegrass, Italian (Italian ryegrass, Lolium multiflorum); assay: Test A preemergence; conditions: Preemergence; for Plant response rating, Ryegrass, Italian: 125 g ai/ha, visual injury after approximately 10 d, 0 to 100 scale where 0 is no effect and 100 is complete control; for Ryegrass, Italian plant response rating (0 to 100 scale, 0 is no effect, 100 is complete control): 500 g ai/ha, visual injury approx. 10 d
In short: as §1

[11] = test system: ragweed (common ragweed, Ambrosia elatior); assay: Test A preemergence; conditions: Preemergence; for Plant response rating, Ragweed: 125 g ai/ha, visual injury after approximately 10 d, 0 to 100 scale where 0 is no effect and 100 is complete control; for Ragweed plant response rating (0 to 100 scale, 0 is no effect, 100 is complete control): 500 g ai/ha, visual injury approx. 10 d
In short: as §1

[12] = test system: pigweed (Amaranthus retroflexus); assay: Test A preemergence; conditions: Preemergence; for Plant response rating, Pigweed: 125 g ai/ha, visual injury after approximately 10 d, 0 to 100 scale where 0 is no effect and 100 is complete control; for Pigweed plant response rating (0 to 100 scale, 0 is no effect, 100 is complete control): 500 g ai/ha, visual injury approx. 10 d
Kochia (Kochia scoparia) [13] = assay: Test A preemergence; conditions: Preemergence; for Plant response rating, Kochia: 125 g ai/ha, visual injury after approximately 10 d, 0 to 100 scale where 0 is no effect and 100 is complete control; for Kochia plant response rating (0 to 100 scale, 0 is no effect, 100 is complete control): 500 g ai/ha, visual injury approx. 10 d
In short: as §1

[14] = test system: giant foxtail (Setaria faberii); assay: Test A preemergence; conditions: Preemergence; for Plant response rating, Foxtail, Giant: 125 g ai/ha, visual injury after approximately 10 d, 0 to 100 scale where 0 is no effect and 100 is complete control; for Foxtail, Giant plant response rating (0 to 100 scale, 0 is no effect, 100 is complete control): 500 g ai/ha, visual injury approx. 10 d
In short: as §1

[15] = test system: barnyardgrass (Echinochloa crus-galli); assay: Test A preemergence; conditions: Preemergence; for Plant response rating, Barnyardgrass: 125 g ai/ha, visual injury after approximately 10 d, 0 to 100 scale where 0 is no effect and 100 is complete control; for Barnyardgrass plant response rating (0 to 100 scale, 0 is no effect, 100 is complete control): 500 g ai/ha, visual injury approx. 10 d
In short: as §1

[16] = test system: sedge, umbrella (small-flower umbrella sedge, Cyperus difformis); assay: Test B flooded paddy test; conditions: Flood, 500 g ai/ha; 0 to 100 scale where 0 is no effect and 100 is complete control; 13 to 15 d
In short: (§2)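 Compound goes directly into floodwater once pots are flooded 3 cm above soil, targeting plants at two leaves; the water depth is then held for the test duration. Plants sit 13–15 d in a greenhouse and are rated visually, 100 denoting complete control.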

rice (Oryra sativa) = assay: Test B flooded paddy test; conditions: Flood, 500 g ai/ha; 0 to 100 scale where 0 is no effect and 100 is complete control; 13 to 15 d
In short: as §2

[17] = test system: barnyardgrass (Echinochloa crus-galli); assay: Test B flooded paddy test; conditions: Flood, 500 g ai/ha; 0 to 100 scale where 0 is no effect and 100 is complete control; 13 to 15 d
In short: as §2

[18] = test system: ducksalad (Heteranthera limosa); assay: Test B flooded paddy test; conditions: Flood, 500 g ai/ha; 0 to 100 scale where 0 is no effect and 100 is complete control; 13 to 15 d
In short: as §2

[19] = 125 g ai/ha, postemergence, visual rating after approx. 10 d, 0 to 100 scale (0 no effect, 100 complete control)
[20] = Postemergence, 500 g ai/ha, 0 to 100 scale where 0 is no effect and 100 is complete control

Compound | Plant response rating, Ryegrass, Italian [1, 19] | Plant response rating, Ryegrass, Italian [1, 20] | Plant response rating, Corn (corn (Zea mays); [19]) | Plant response rating, Corn (corn (Zea mays); [20]) | Blackgrass plant response rating [2] | Plant response rating, Blackgrass [2] | Plant response rating, Ragweed [3, 19] | Plant response rating, Ragweed [3, 20] | Plant response rating, Pigweed [4, 19] | Plant response rating, Pigweed [4, 20] | Plant response rating, Wheat [5, 19] | Plant response rating, Wheat [5, 20] | Plant response rating, Kochia (Kochia (Kochia scoparia) [6]; [19]) | Plant response rating, Kochia (Kochia (Kochia scoparia) [6]; [20]) | Plant response rating, Galium [7, 19] | Plant response rating, Galium [7, 20] | Plant response rating, Foxtail, Giant [8, 19] | Plant response rating, Foxtail, Giant [8, 20] | Barnyardgrass plant response rating [9] | Plant response rating, Barnyardgrass [9] | further results
O=C1NCC(c2ccc(Oc3ccccc3)cc2)C1C(=O)Nc1ccc(F)c(F)c1F (racemic) [Compound 537] | 0 | 0 | 0 | 0 | 0 | 0 | 0 | 0 | 0 | 0 | 0 | 0 | 0 | 0 | 0 | 0 | 0 | 0 | 0 | 0 | Plant response rating, Ryegrass, Italian [10]: 0; Ryegrass, Italian plant response rating (0 to 100 scale, 0 is no effect, 100 is complete control) [10]: 0; Plant response rating, Ragweed [11]: 0; Ragweed plant response rating (0 to 100 scale, 0 is no effect, 100 is complete control) [11]: 0; Plant response rating, Pigweed [12]: 0; Pigweed plant response rating (0 to 100 scale, 0 is no effect, 100 is complete control) [12]: 0; Plant response rating, Kochia (Kochia (Kochia scoparia) [13]): 0; Kochia plant response rating (0 to 100 scale, 0 is no effect, 100 is complete control) (Kochia (Kochia scoparia) [13]): 0; Plant response rating, Foxtail, Giant [14]: 0; Foxtail, Giant plant response rating (0 to 100 scale, 0 is no effect, 100 is complete control) [14]: 0; Plant response rating, Barnyardgrass [15]: 0; Barnyardgrass plant response rating (0 to 100 scale, 0 is no effect, 100 is complete control) [15]: 0; Plant response rating, Sedge, Umbrella [16]: 50; Plant response rating, Rice (rice (Oryra sativa)): 20; Plant response rating, Barnyardgrass [17]: 30; Plant response rating, Ducksalad [18]: 0
O=C1NCC(c2ccc(Oc3ccccc3)cc2)C1C(=O)Nc1ccccc1Cl (racemic) [Compound 538] | 0 | 0 | 0 | 0 | 0 | 0 | 0 | 0 | 0 | 0 | 0 | 0 | 0 | 0 | 0 | 0 | 0 | 0 | 0 | 0 | Plant response rating, Ryegrass, Italian [10]: 0; Ryegrass, Italian plant response rating (0 to 100 scale, 0 is no effect, 100 is complete control) [10]: 0; Plant response rating, Ragweed [11]: 0; Ragweed plant response rating (0 to 100 scale, 0 is no effect, 100 is complete control) [11]: 0; Plant response rating, Pigweed [12]: 0; Pigweed plant response rating (0 to 100 scale, 0 is no effect, 100 is complete control) [12]: 0; Plant response rating, Kochia (Kochia (Kochia scoparia) [13]): 0; Kochia plant response rating (0 to 100 scale, 0 is no effect, 100 is complete control) (Kochia (Kochia scoparia) [13]): 0; Plant response rating, Foxtail, Giant [14]: 0; Foxtail, Giant plant response rating (0 to 100 scale, 0 is no effect, 100 is complete control) [14]: 0; Plant response rating, Barnyardgrass [15]: 0; Barnyardgrass plant response rating (0 to 100 scale, 0 is no effect, 100 is complete control) [15]: 0; Plant response rating, Sedge, Umbrella [16]: 0; Plant response rating, Rice (rice (Oryra sativa)): 0; Plant response rating, Barnyardgrass [17]: 0; Plant response rating, Ducksalad [18]: 0
